Measurements taken from ChEMBL document CHEMBL1131967, “BN 80927: a novel homocamptothecin with inhibitory activities on both topoisomerase I and topoisomerase II” (Bioorg Med Chem Lett, 1999).

Legend:
Type in all cases: functional, cell-based
DU-145 = assay: Antiproliferative activity against human DU145 prostate cell line
HT-29 = assay: Antiproliferative activity against human HT-29 colon cell line
MCF7 = assay: Antiproliferative activity against human MCF-7 breast cell line
SK-OV-3 = assay: Antiproliferative activity against human SKOV-3 ovarian cell line

Row | IC50 (DU-145) [nM] | IC50 (HT-29) [nM] | IC50 (MCF7) [nM] | IC50 (SK-OV-3) [nM] | SMILES
1 | 2300 | > 10000 | 3800 | 2400 | CN(C)CCNC(=O)c1cccc2cc3ccccc3nc12
2 | 13 | 22 | 370 | 720 | CCc1c2c(nc3ccc(O)cc13)-c1cc3c(c(=O)n1C2)COC(=O)[C@]3(O)CC [7-ETHYL-10-HYDROXYCAMPTOTHECIN]
3 | 560 | 890 | 1000 | 450 | Cc1cnc(NCCCN(C)C)c2c1[nH]c1ccc3cc(O)ccc3c12 [INTOPLICINE]
4 | 1300 | 200 | 100000 | 4900 | COc1cc([C@@H]2c3cc4c(cc3[C@@H](O[C@@H]3O[C@@H]5CO[C@@H](C)O[C@H]5[C@H](O)[C@H]3O)[C@H]3COC(=O)[C@H]23)OCO4)cc(OC)c1O [ETOPOSIDE]
